Test results taken from US9907856B2, “Carboxymethylcellulose-peptide conjugates and methods for using the same” (The Regents of the University of California, priority 2013, dated 2018).
Ends that are not written are not given here.

Tests used:
[1] = system: Chronic Myocardial Infarction Model; assay: Echocardiography in chronic myocardial infarction model after polymer injection; assay type: in vivo, Sprague-Dawley rats; details: rat; for Diastolic volume / MI wall thickness / Systolic volume: 5 weeks post-treatment vs baseline; for Fractional area change (FAC), 5 weeks post-treatment / LV ejection fraction, 5 weeks post-treatment: 100 μL injected into infarcted LV, 5 weeks post-treatment (10 weeks post-MI); for Fractional area change (FAC), 5 weeks post-treatment / LV ejection fraction, 5 weeks post-treatment / Fractional area change (FAC), baseline / LV ejection fraction, baseline: mean ± SD; for Fractional area change (FAC), baseline / LV ejection fraction, baseline: baseline 5 weeks post-MI, before treatment
Protocol: (§1) All surgical procedures were approved by the Committee for Animal Research of the University of California San Francisco (San Francisco, Calif.). Female Sprague-Dawley rats (225-250 g) were anesthetized with isoflurane. The chest was opened by a median sternotomy, and a single stitch of 7-0 Ticron suture (United States Surgical division of Tyco Healthcare, Norwalk, Conn.) was introduced around the left anterior descending (LAD) coronary artery and tightened to occlude for 30 min. before re-perfusing the vessel (Yu et al, J Thorac Cardiovasc Surg. 2009 Jan. 1, 2009; 137(1):180-7; Christman et a, J Am Coll Cardiol. 2004; 44(3):654-60; Christman et al, Tissue Eng. 2004; 10(3-4):403-9; Huang et al, Tissue Eng. 2005; 11(11-12):1860-6; Sievers et al, Magn Reson Med. 1989; 10:172-81; and Yu et al, Biomaterials. 2009; 30(5):751-6; which are hereby incorporated by reference in their entirety). Cardiac monitoring during the LAD occlusion confirmed the presence of myocardial injury as indicated by ST-elevation. The chest was then closed and the animal was allowed to recover for 5 weeks in order to allow for a LV aneurysm to fully develop. Transthoracic echocardiography was performed 5 weeks post-MI and 5 weeks post-treatment as previously described (Yu et al, J Thorac Cardiovasc Surg. 2009 Jan. 1, 2009; 137(1):180-7; and Litwin et al, Circulation. 1994; 89:345-54; which are hereby incorporated by reference in their entirety).
(§2) Five weeks post-MI and prior to treatment, we verified the LV aneurysmal formation and compromised LV function via echocardiography. The rats were randomized into MC:CMC, MC:CMC-RGD, MC:CMC-HepIII, or phosphate-buffered saline (PBS) control groups (N=8-9 rats/group). Using a closed chest echocardiography-guided injection technique (Springer et al, American Journal of Physiology—Heart and Circulatory Physiology. Sep. 1, 2005; 289(3):H1307-H14; which is hereby incorporated by reference in its entirety), 100 μL of polymer or PBS solution was injected into the infracted LV region of each heart, using a 1 mL syringe system and a 25-gauge needle.

[2] = Rheology studies of 5:1 MC:CMC polymer blends; assay type: physicochemical; details: for Gelling temperature: 5:1 MC:CMC polymer blends, intersection of elastic and viscous modulus plots, mean ± SEM; for Effect of peptide conjugation on viscoelastic properties of the polymer: 5:1 blend, 20-40° C., vs unconjugated polymer
Protocol: Rheology measurements (Advanced Rheometer AR2000, TA Instruments, New Castle, Del.) were done on MC:CMC, MC:CMC-RGD, and MC:CMC-HepIII co-polymers mixed at a 5:1 ratio. The elastic modulus and viscous modulus were determined for temperatures ranging from 20-40° C., with 1° C. increments. The equilibration time was set at 1 min. and the frequency was set at 1 Hz. The gelling temperature was defined as the point of intersection between the plot for the elastic modulus and the plot for the viscous modulus. Measurements were done in triplicate.

[3] = system: Chronic Myocardial Infarction Model; assay: Histology/immunohistochemistry of infarct region (infarct size, angiogenesis, cardiac cells); assay type: in vivo, Sprague-Dawley rats; details: rat, 5 weeks post-treatment; for Density of cardiomyocytes within the infarct region / Infarct size: compared to PBS negative control; for Capillary density in the infarct region: CD31 staining; for Capillary density in the infarct region / Arteriole density within the infarct region: mean ± SD; for Infarct size: Masson's trichrome; for Arteriole density within the infarct region: α-smooth muscle actin staining
Protocol: as §1, §2
Five weeks post-treatment (10 weeks post-MI), the rats were euthanized and their hearts were harvested, rinsed in cold saline, blotted-dry and fresh frozen in Tissue Tek O.C.T. freezing medium (Sakura Finetek, Torrance, Calif.). The hearts were sectioned into 10 μm slices. Sequential slides spanning the LV region were stained with Masson's trichrome stain and were used for morphological assessment of the infarct size as previously described (Christman et al, J Am Coll Cardiol. 2004; 44(3):654-60). Angiogenesis, arteriogenesis, and the number of cardiac cells within the infarct region were examined by immunohistochemical (IHC) staining with mouse monoclonal anti-CD31 (BD Biosciences Pharmingen, San Diego, Calif.) to visualize capillaries, mouse monoclonal anti-α-smooth muscle actin (Sigma, St. Louis, Mo.) to detect arterioles (Virag et al, Am J Pathol. 2003 Dec. 1, 2003; 163(6):2433-40; which is hereby incorporated by reference in its entirety), and mouse monoclonal anti-rat cardiac α-myosin heavy chain (Panorama Research Institute, Mountain View, Calif.) to detect the cardiac cells. The staining assay was performed using mouse-on-rat HRP-polymer (Biocare Medical, Concord, Calif.) on slides that were sequential to the slides stained with trichrome. Capillaries in the infarct region were identified as a single layer of CD31-positive cells with flattened morphology. Vessel density, cardiac cell density, and nuclei density was calculated on the basis of 5 high magnification fields per section that spanned the infarct and averaged among 5 sections for each sample. Arterioles within or bordering the infarct were identified as staining positive for α-smooth muscle actin and as having a visible lumen with a diameter between 10 and 100 μm (Yu et al, J Thorac Cardiovasc Surg. 2009 Jan. 1, 2009; 137(1):180-7; and Christman et a, J Am Coll Cardiol. 2004; 44(3):654-60). […]

Substance	Diastolic volume [1]	MI wall thickness [1]	Systolic volume [1]	Fractional area change (FAC), 5 weeks post-treatment [1] [%]	LV ejection fraction, 5 weeks post-treatment [1] [%]	Fractional area change (FAC), baseline [1] [%]	LV ejection fraction, baseline [1] [%]	Gelling temperature [2] [°C]	Effect of peptide conjugation on viscoelastic properties of the polymer [2]	Density of cardiomyocytes within the infarct region [3]	Capillary density in the infarct region [3] [capillaries/mm^2]	Infarct size [3]	Arteriole density within the infarct region [3] [arterioles/mm^2]
MC:CMC-RGD: Methylcellulose blended 5:1 with carboxymethylcellulose conjugated to RGD peptide GRGDSPASSPISC (SEQ ID NO: 1) (also: conjugated to carboxymethylcellulose, blended with methylcellulose (attachment site not given here))	significantly decreased	increase	significantly decreased	44.0±9.26	42.9±8.29	36.0±2.44	34.2±1.91	26.75 ± 0.4954	did not significantly alter	higher density	472±146	statistically significant reduction	32±12
MC:CMC-HepIII: Methylcellulose blended 5:1 with carboxymethylcellulose conjugated to HepIII peptide GEFYFDLRLKGDKY (SEQ ID NO: 2) (also: conjugated to carboxymethylcellulose, blended with methylcellulose (attachment site not given here))	significantly decreased	increase	significantly decreased	45.6±9.63	43.0±6.25	36.9±2.60	36.9±2.18	26.85 ± 0.6256	decreased stiffness and viscosity	higher density	424±56	statistically significant reduction	28±10
